{"source": "patent US4550186A", "about": "“Binuclear copper (II) carboxylates formed from amine-carboxyboranes” (Duke University, priority 1983, dated 1985)", "key": {"[1]": {"test_system": "Ehrlich ascites carcinoma", "assay": "Ehrlich ascites carcinoma growth in CF1 male mice", "format": "in vivo, mouse", "settings": "for No. of Animals Survived on Day 10: 6 animals; for Ascrit Packed Cell Vol. / Vol(ml) Ascites Fluid: Day 10; for Percent Inhibition: Ehrlich ascites carcinoma growth", "protocol": "(§1) CF1 male mice (~30 g) were implanted with 2×10^6 Ehrlich ascites tumor cells, intraperitoneally on Day 0. Compound I was suspended by homogenation in 0.05% polysorbate.80-water and administered intraperitoneally at 10 and 20 mg/kg for 9 days to determine its effectiveness for inhibition of tumor growth. Mice were sacrificed on Day 10, and the ascites fluid was collected from the peritoneal cavity. The volume and ascrit (packed cell volume) were determined for each animal and the percent inhibition of tumor growth was calculated. For the metabolic studies, mice were treated on Days 8 and 9 with 10 mg/kg of Compound I, intraperitoneally. The animal was sacrificed on Day 10 and the ascites fluid harvested. The in vitro metabolic studies were performed at 0.25, 0.50 and 1 mmol final concentration of Compound I."}, "[2]": {"target": "T1, orotidine monophosphate decarboxylase (Mus musculus, UniProt P13439)", "T1 construct": "OMP decarboxylase domain of UMP synthase", "T1 sequence (P13439 whole entry, the tested form may be a part)": "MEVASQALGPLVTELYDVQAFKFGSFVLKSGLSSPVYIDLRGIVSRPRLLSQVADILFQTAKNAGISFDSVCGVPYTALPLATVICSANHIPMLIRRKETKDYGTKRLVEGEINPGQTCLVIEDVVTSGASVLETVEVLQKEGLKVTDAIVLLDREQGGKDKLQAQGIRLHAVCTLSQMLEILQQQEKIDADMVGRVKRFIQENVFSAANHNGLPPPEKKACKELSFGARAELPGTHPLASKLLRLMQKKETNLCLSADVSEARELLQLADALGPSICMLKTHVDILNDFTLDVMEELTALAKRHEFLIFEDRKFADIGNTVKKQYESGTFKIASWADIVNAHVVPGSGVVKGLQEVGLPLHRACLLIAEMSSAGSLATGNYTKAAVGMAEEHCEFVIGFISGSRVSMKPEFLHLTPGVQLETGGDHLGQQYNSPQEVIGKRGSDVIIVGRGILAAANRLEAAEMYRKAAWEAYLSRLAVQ", "assay": "In vivo orotidine monophosphate decarboxylase activity", "protocol": "as §1, with “The animal was sacrificed on Day 10 and the ascites fluid harvested. The in vitro metabolic studies were performed at 0.25, 0.50 and 1 mmol final concentration of Compound I.” left out\n(§2) Carbamyl phosphate synthetase activity was determined using the reaction medium of Kalman et al [Am. […] Citrulline formed from ornithine was measured at 490 nm by the method of Archibald [J. Biol. Chem., 156, 121 (1944)]. […] The ^14 CO2 generated in 15 min was trapped in 1M KOH and counted. Thymidylate synthetase activity was determined using a post-mitochondrial supernatant (9000 g×10 min) and 5 μCi of 5-^3 H-deoxyuridine monophosphate (14 Ci/mmol) according to the method of Kampf et al [ J. Med. Chem., 19, 903 (1976)]. ^14 C-Formate incorporation into purines was determined by the method of Spassova et al [Biochem. Pharmacol., 25, 923 (1976)] using 0.5 μCi of ^14 C-formic acid (52.0 mCi/mmol). […] The Rf value for xanthine monophosphate was scraped and counted. […]"}, "[3]": {"test_system": "aspartate transcarbamylase", "assay": "In vivo aspartate transcarbamylase activity", "design": "species or system mouse", "protocol": "as §1, with “The animal was sacrificed on Day 10 and the ascites fluid harvested. The in vitro metabolic studies were performed at 0.25, 0.50 and 1 mmol final concentration of Compound I.” left out\nas §2"}, "Ehrlich ascites cells": {"test_system": "Ehrlich ascites cells", "assay": "Number of cells in ascites fluid", "format": "in vivo, mouse", "protocol": "as §1"}, "[4]": {"settings": "10 mg/kg/day I.P. on Days 8 and 9"}}, "note": "Read-outs that look alike come from different tables or passages of the source."}
{"substance": "{Cu[(CH3)3 N.BH2 CO2 ]2.(CH3)3 N.BH2 COOH} [Compound I]", "values": [{"measurement": "No. of Animals Survived on Day 10", "setting": "[1]; 10 mg/kg/day i.p.", "result": 5}, {"measurement": "Ascrit Packed Cell Vol.", "setting": "[1]; 10 mg/kg/day i.p.", "result": 18.5}, {"measurement": "Vol(ml) Ascites Fluid", "setting": "[1]; 10 mg/kg/day i.p.", "result": 0.04, "unit": "mL"}, {"measurement": "Percent Inhibition", "setting": "[1]; 10 mg/kg/day i.p.", "result": 99.7, "unit": "%"}, {"measurement": "No. of Animals Survived on Day 10", "setting": "[1]; 20 mg/kg/day i.p.", "result": 6}, {"measurement": "Ascrit Packed Cell Vol.", "setting": "[1]; 20 mg/kg/day i.p.", "result": 34.0}, {"measurement": "Vol(ml) Ascites Fluid", "setting": "[1]; 20 mg/kg/day i.p.", "result": 0.32, "unit": "mL"}, {"measurement": "Percent Inhibition", "setting": "[1]; 20 mg/kg/day i.p.", "result": 96.2, "unit": "%"}, {"measurement": "Orotidine monophosphate decarboxylase activity", "setting": "[2]", "result": "not affected"}, {"measurement": "Orotidine monophosphate decarboxylase activity", "setting": "[2]; [4]", "result": "106 ± 9", "unit": "% Control"}, {"measurement": "Aspartate carbamyl transferase activity suppressed", "setting": "[3]", "result": 11, "unit": "%"}, {"measurement": "Aspartate transcarbamylase activity", "setting": "[3]; [4]", "result": "89 ± 8", "unit": "% Control"}, {"measurement": "number of cells in the ascites fluid", "setting": "Ehrlich ascites cells; after drug administration for two days (control 226×10^6 /ml)", "result": "1.02e+08", "unit": "mL⁻¹"}, {"measurement": "Number of cells × 10^6 /ml ascites fluid", "setting": "Ehrlich ascites cells; in vivo, 10 mg/kg/day I.P. on Days 8 and 9", "result": "45 ± 4", "unit": "% Control"}]}
